Reference: patent US20130157954A1, “METHODS FOR TREATMENT OR PROPHYLAXIS OF KIDNEY OR LIVER DYSFUNCTION” (NPS PHARMACEUTICALS, INC., priority 2010, published 2013)

Assay: Example 1: kidney biomarkers (urea nitrogen, creatinine, GFR) in short bowel syndrome patients, every four weeks for 24 weeks; also sorted by >5% change from baseline
Format: in vivo, Human
Conditions: 0.05 mg/kg/day
Method: Human patients with short bowel syndrome were divided into three groups: a control group (16 total individuals) to receive placebo, an experimental group (35 total individuals) to receive teduglutide at 0.05 mg/kg/day throughout the study, and an experimental group (32 total individuals) to receive teduglutide at 0.1 mg/kg/day throughout the study. Patients were treated by subcutaneous injection of placebo or the appropriate dose of teduglutide. As individuals with short bowel syndrome are likely to experience associated liver and kidney disease, known biomarkers of liver and kidney function were monitored every four weeks, for 24 weeks. The liver biomarkers tested included total bilirubin, ALT and AST and ALP. The kidney biomarkers tested included urea nitrogen, creatinine and GFR. Before administration of placebo or teduglutide, diagnostic biomarker levels were tested to establish a baseline for each individual.
To visualize the effect of GLP-2 on the levels of the diagnostic biomarkers, the average change from baseline was calculated for the placebo and teduglutide treated groups for each visit after a baseline was established. The average change from baseline of each group is depicted in FIGS. 1-7. The numerical figures for each diagnostic biomarker at each time point are depicted in Table 1.
The raw data for this sorting is reproduced in Table 2 below.

CC[C@H](C)[C@H](NC(=O)[C@H](Cc1ccccc1)NC(=O)[C@H](CC(=O)O)NC(=O)[C@H](CCCNC(=N)N)NC(=O)[C@H](C)NC(=O)[C@H](C)NC(=O)[C@H](CC(C)C)NC(=O)[C@H](CC(N)=O)NC(=O)[C@H](CC(=O)O)NC(=O)[C@H](CC(C)C)NC(=O)[C@@H](NC(=O)[C@@H](NC(=O)[C@H](CC(N)=O)NC(=O)[C@H](CCSC)NC(=O)[C@H](CCC(=O)O)NC(=O)[C@H](CC(=O)O)NC(=O)[C@H](CO)NC(=O)[C@H](Cc1ccccc1)NC(=O)[C@H](CO)NC(=O)CNC(=O)[C@H](CC(=O)O)NC(=O)CNC(=O)[C@@H](N)Cc1c[nH]cn1)[C@@H](C)O)[C@@H](C)CC)C(=O)N[C@@H](CC(N)=O)C(=O)N[C@@H](Cc1c[nH]c2ccccc12)C(=O)N[C@@H](CC(C)C)C(=O)N[C@H](C(=O)N[C@@H](CCC(N)=O)C(=O)N[C@H](C(=O)N[C@@H](CCCCN)C(=O)N[C@H](C(=O)N[C@H](C(=O)N[C@@H](CC(=O)O)C(=O)O)[C@@H](C)O)[C@@H](C)CC)[C@@H](C)O)[C@@H](C)CC [teduglutide]
CREATININE (RATE BLANKED) change from baseline >5%, number of patients (week 12): 16 | CREATININE (RATE BLANKED) change from baseline >5%, percent of patients (week 12): (45.7%) | CREATININE (RATE BLANKED) change from baseline −5% <= and <=5%, number of patients (week 12): 4 | CREATININE (RATE BLANKED) change from baseline −5% <= and <=5%, percent of patients (week 12): (11.4%) | GFR change from baseline <−5%, number of patients (week 12): 15 | GFR change from baseline <−5%, percent of patients (week 12): (42.9%) | GFR change from baseline >5%, number of patients (week 12): 6 | GFR change from baseline >5%, percent of patients (week 12): (17.1%) | GFR change from baseline −5% <= and <=5%, number of patients (week 12): 5 | GFR change from baseline −5% <= and <=5%, percent of patients (week 12): (14.3%) | UREA NITROGEN change from baseline <−5%, number of patients (week 12): 17 | UREA NITROGEN change from baseline <−5%, percent of patients (week 12): (48.6%) | UREA NITROGEN change from baseline >5%, number of patients (week 12): 6 | UREA NITROGEN change from baseline >5%, percent of patients (week 12): (17.1%) | UREA NITROGEN change from baseline −5% <= and <=5%, number of patients (week 12): 4 | UREA NITROGEN change from baseline −5% <= and <=5%, percent of patients (week 12): (11.4%) | CREATININE (RATE BLANKED) change from baseline <−5%, number of patients (week 16): 8 | CREATININE (RATE BLANKED) change from baseline <−5%, percent of patients (week 16): (22.9%) | CREATININE (RATE BLANKED) change from baseline >5%, number of patients (week 16): 8 | CREATININE (RATE BLANKED) change from baseline >5%, percent of patients (week 16): (22.9%) | CREATININE (RATE BLANKED) change from baseline −5% <= and <=5%, number of patients (week 16): 12 | CREATININE (RATE BLANKED) change from baseline −5% <= and <=5%, percent of patients (week 16): (34.3%) | GFR change from baseline <−5%, number of patients (week 16): 7 | GFR change from baseline <−5%, percent of patients (week 16): (20.0%) | GFR change from baseline >5%, number of patients (week 16): 11 | GFR change from baseline >5%, percent of patients (week 16): (31.4%) | GFR change from baseline −5% <= and <=5%, number of patients (week 16): 10 | GFR change from baseline −5% <= and <=5%, percent of patients (week 16): (28.6%) | UREA NITROGEN change from baseline <−5%, number of patients (week 16): 12 | UREA NITROGEN change from baseline <−5%, percent of patients (week 16): (34.3%) | UREA NITROGEN change from baseline >5%, number of patients (week 16): 10 | UREA NITROGEN change from baseline >5%, percent of patients (week 16): (28.6%) | UREA NITROGEN change from baseline −5% <= and <=5%, number of patients (week 16): 6 | UREA NITROGEN change from baseline −5% <= and <=5%, percent of patients (week 16): (17.1%) | CREATININE (RATE BLANKED) change from baseline <−5%, number of patients (week 20): 9 | CREATININE (RATE BLANKED) change from baseline <−5%, percent of patients (week 20): (25.7%) | CREATININE (RATE BLANKED) change from baseline >5%, number of patients (week 20): 10 | CREATININE (RATE BLANKED) change from baseline >5%, percent of patients (week 20): (28.6%) | CREATININE (RATE BLANKED) change from baseline −5% <= and <=5%, number of patients (week 20): 8 | CREATININE (RATE BLANKED) change from baseline −5% <= and <=5%, percent of patients (week 20): (22.9%) | GFR change from baseline <−5%, number of patients (week 20): 10 | GFR change from baseline <−5%, percent of patients (week 20): (28.6%) | GFR change from baseline >5%, number of patients (week 20): 10 | GFR change from baseline >5%, percent of patients (week 20): (28.6%) | GFR change from baseline −5% <= and <=5%, number of patients (week 20): 7 | GFR change from baseline −5% <= and <=5%, percent of patients (week 20): (20.0%) | UREA NITROGEN change from baseline <−5%, number of patients (week 20): 13 | UREA NITROGEN change from baseline <−5%, percent of patients (week 20): (37.1%) | UREA NITROGEN change from baseline >5%, number of patients (week 20): 7 | UREA NITROGEN change from baseline >5%, percent of patients (week 20): (20.0%) | UREA NITROGEN change from baseline −5% <= and <=5%, number of patients (week 20): 7 | UREA NITROGEN change from baseline −5% <= and <=5%, percent of patients (week 20): (20.0%) | CREATININE (RATE BLANKED) change from baseline <−5%, number of patients (week 24): 8 | CREATININE (RATE BLANKED) change from baseline <−5%, percent of patients (week 24): (22.9%) | CREATININE (RATE BLANKED) change from baseline >5%, number of patients (week 24): 9 | CREATININE (RATE BLANKED) change from baseline >5%, percent of patients (week 24): (25.7%) | CREATININE (RATE BLANKED) change from baseline −5% <= and <=5%, number of patients (week 24): 9 | CREATININE (RATE BLANKED) change from baseline −5% <= and <=5%, percent of patients (week 24): (25.7%) | GFR change from baseline <−5%, number of patients (week 24): 8 | GFR change from baseline <−5%, percent of patients (week 24): (22.9%) | GFR change from baseline >5%, number of patients (week 24): 10 | GFR change from baseline >5%, percent of patients (week 24): (28.6%) | GFR change from baseline −5% <= and <=5%, number of patients (week 24): 8 | GFR change from baseline −5% <= and <=5%, percent of patients (week 24): (22.9%) | UREA NITROGEN change from baseline <−5%, number of patients (week 24): 17 | UREA NITROGEN change from baseline <−5%, percent of patients (week 24): (48.6%) | UREA NITROGEN change from baseline >5%, number of patients (week 24): 7 | UREA NITROGEN change from baseline >5%, percent of patients (week 24): (20.0%) | UREA NITROGEN change from baseline −5% <= and <=5%, number of patients (week 24): 2 | UREA NITROGEN change from baseline −5% <= and <=5%, percent of patients (week 24): (5.7%)
